From PubChem BioAssay (NCI)
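Method: 48-hour compound exposure of cells in 96-well plates, five concentrations, linear interpolation of endpoints. GI50 = concentration required for 50% inhibition of growth. TGI is the concentration that stops growth completely.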

What was measured:
Experiment in all cases: NCI tumour cell line growth inhibition, 48 h
UO-31 renal = test system: UO-31 renal
IGROV1 ovarian = test system: IGROV1 ovarian
CAKI-1 renal = test system: CAKI-1 renal
SF-268 CNS = test system: SF-268 CNS
EKVX NSCLC = test system: EKVX NSCLC
HCT-116 colon = test system: HCT-116 colon
SR leukemia = test system: SR leukemia
HS 578T breast = test system: HS 578T breast
DU-145 prostate = test system: DU-145 prostate
PC-3 prostate = test system: PC-3 prostate

Compound | TGI (UO-31 renal) [µM] | TGI (IGROV1 ovarian) [µM] | TGI (CAKI-1 renal) [µM] | TGI (SF-268 CNS) [µM] | TGI (EKVX NSCLC) [µM] | TGI (HCT-116 colon) [µM] | TGI (SR leukemia) [µM] | GI50 (UO-31 renal) [µM] | GI50 (IGROV1 ovarian) [µM] | GI50 (CAKI-1 renal) [µM] | GI50 (HS 578T breast) [µM] | TGI (HS 578T breast) [µM] | GI50 (SF-268 CNS) [µM] | GI50 (EKVX NSCLC) [µM] | GI50 (DU-145 prostate) [µM] | TGI (DU-145 prostate) [µM] | GI50 (HCT-116 colon) [µM] | GI50 (SR leukemia) [µM] | GI50 (PC-3 prostate) [µM] | TGI (PC-3 prostate) [µM]
N#C/C(=C1\NN=C(N)C(c2ccc(Cl)cc2)=C1O)c1ccc(Cl)cc1 | > 100 | > 100 | > 100 | > 100 | > 100 | > 100 | > 100 | – | – | – | – | – | – | – | – | – | – | – | – | –
COC(=O)C1C2C=CC(C2)C1(C(=O)OC)S(=O)CC12CCC(CC1O)C2(C)C (stereo not drawn) | > 100 | > 100 | > 100 | > 100 | > 100 | > 100 | 63.1 | – | – | – | – | – | – | – | – | – | – | – | – | –
O=c1c2cccc3cccc(c4oc5c6cccc7cccc(c(=O)c5c14)c76)c32 | 23.1 | 28.7 | 45.9 | 19.6 | 23.3 | 17 | 29.9 | – | – | – | – | – | – | – | – | – | – | – | – | –
COCC1N=C(c2cc(OC)c(OC)c(OC)c2-c2cc3c(cc2C2OCCCO2)OCO3)O[C@H]1c1ccccc1 (stereo partly drawn) | > 100 | > 100 | > 100 | > 100 | > 100 | > 100 | – | – | – | – | – | – | – | – | – | – | – | – | – | –
O=C(O)CCSCCCN1C(=O)c2ccccc2C1=O | > 100 | > 100 | – | > 100 | > 100 | > 100 | > 100 | – | – | – | – | – | – | – | – | – | – | – | – | –
O=C(/C=C/c1ccc(Cl)c(Cl)c1)c1ccc(F)cc1 | > 100 | 40.2 | 60.8 | 56.3 | 55.3 | 20.3 | – | – | – | – | – | – | – | – | – | – | – | – | – | –
O=C1OC(CC(=O)c2ccc(Cl)cc2Cl)C(Cl)=C1Cl (stereo not drawn) | > 56.7 | > 69.9 | > 70.3 | 62.7 | > 76.9 | 32.9 | 70.4 | – | – | – | – | – | – | – | – | – | – | – | – | –
CC1CC2C(=O)N(c3ccccc3)C(=O)C2c2c1c1ccccc1n2Cc1ccccc1 (stereo not drawn) | > 100 | > 100 | > 100 | > 100 | > 100 | > 100 | > 100 | – | – | – | – | – | – | – | – | – | – | – | – | –
O=c1[nH]nc2ccccc2c1Cl | 28.2 | 28.5 | 12 | 41.9 | 15.5 | 29.9 | – | – | – | – | – | – | – | – | – | – | – | – | – | –
CN(C)c1ccc(-c2cc(-c3ccc(Nc4nc(Nc5ccccc5)nc(Nc5ccc(Cl)cc5)n4)cc3)nc(N)n2)cc1 | > 100 | 62 | 7.76 | 56.4 | > 100 | 15.2 | 5.02 | 2.69 | 2.07 | 1.61 | 2.57 | 20.2 | 6.69 | 1.82 | 8.09 | 21.4 | 3.51 | 1.39 | – | –
C=CN1C(=O)OC[C@@H]1c1ccccc1 | > 100 | > 100 | > 100 | > 100 | > 100 | > 100 | – | – | – | – | – | – | – | – | – | – | – | – | – | –
Cn1ccc2c(c1=O)C(=O)c1nccc3c1c-2nc1ccccc13 | 3.21 | 3.87 | 2.85 | – | 3.16 | 2.87 | – | 1.55 | 1.52 | 1.44 | – | – | – | 1.65 | – | – | 1.35 | – | 1.69 | 3.64
Cc1cc(NC(=O)NC(=O)c2ccccc2N)ccc1Oc1ncc(Br)cn1 | > 59.6 | 24 | 63.3 | > 67.3 | > 84.3 | 8.15 | > 15.8 | – | – | – | – | – | – | – | – | > 4.64 | – | – | – | 6.15
[C-]#[O+].[C-]#[O+].[C-]#[O+].[C-]#[O+].[Ir].[Ir].[O-]c1ccc2ccccc2c1C=Nc1ccc(N=Cc2c([O-])ccc3ccccc23)cc1 | > 100 | > 100 | > 100 | > 100 | > 100 | > 100 | > 100 | > 100 | > 100 | > 100 | – | – | > 100 | > 100 | – | – | > 100 | > 100 | – | –
N#Cc1c(N)nc(N2CCOCC2)c(C#N)c1-c1ccc(Cl)cc1 | – | 46.4 | 97.1 | > 100 | > 100 | > 100 | – | – | 14 | 26 | 40.6 | > 100 | 61.7 | 22.5 | 75 | > 100 | 65.1 | – | 16.6 | 70.1
CCN1CCN(CC(=O)Nc2nc3ccc(NCc4ccc(Cl)cc4)cc3s2)CC1 | 3.19 | 14.9 | 5.19 | 6.29 | > 100 | 11.7 | 17 | 1.62 | 3.37 | 2.1 | 2.59 | 9.09 | 2.43 | 3.29 | 7.31 | > 100 | 3.21 | 2.78 | – | –
O=c1c(Sc2c(O)c3ccccc3c3ccccc3c2=O)c(O)c2ccccc2c2ccccc12 | > 100 | > 100 | > 100 | 99 | > 100 | – | – | – | – | – | – | – | – | – | – | – | – | – | – | –
C=CCN(N=O)C(=O)N(CCCC(NC(C)=O)C(=O)NCc1ccccc1)Cc1ccccc1 (stereo not drawn) | > 100 | > 100 | 83.9 | > 100 | > 100 | – | – | – | – | – | – | – | – | – | – | – | – | – | – | –
CC1CC(c2cccc3c2OCO3)=Nc2ccccc2S1 (stereo not drawn) | > 100 | > 100 | > 100 | > 100 | > 100 | – | – | – | – | – | – | – | – | – | – | – | – | – | – | –
Cc1ccc(NC(=O)c2cc3ccccc3c(N=Nc3ccccc3O)c2O)c(C)c1 | – | 13.5 | 11.4 | 10.5 | 17.3 | 2.2 | 3.53 | – | – | – | – | 8.29 | – | – | – | – | – | – | – | 10
OCC(O)C(OC1OC(CO)C(O)C(O)C1O)c1nn(-c2ccccc2)c2nc3cc(Cl)c(Cl)cc3cc12 (stereo not drawn) | > 100 | – | – | > 100 | > 100 | > 100 | > 100 | – | – | – | – | – | – | – | – | – | – | – | – | –
C=C1C(=O)OC2C1CC[C@H](C)C13OC(=O)CC1[C@@]23C (stereo partly drawn) | > 100 | > 100 | > 100 | > 100 | > 100 | > 100 | > 100 | – | – | – | – | – | – | – | – | – | – | – | – | –
NNC(=O)CCC(=O)Nc1cc(Cl)c(Cl)cc1Cl | > 100 | > 100 | > 100 | > 100 | – | > 100 | > 100 | – | – | – | – | – | – | – | – | – | – | – | – | –
